Source: US8586110B2, “Therapeutic composition produced using Camellia sinensis leaves and hydrogen peroxide” (LiveLeaf, Inc., priority 2007, dated 2013)

Test system: wild strain E-Coli
Test: E-Coli culture turbidity over time (Experiment 4)
Type: cell-based
Settings: 25 ppm hydrogen peroxide or equivalent concentration
Experimental: A wild strain E-Coli culture was added to three samples. The sample A contained 25 ppm hydrogen peroxide in water. The sample B contained a solution of Formulation A diluted to equivalent 25 ppm hydrogen peroxide fraction. The sample C contained a solution having a green tea extract of the same concentration of Formulation A but without hydrogen peroxide.

OO [hydrogen peroxide]
antimicrobial effect on bacteria population (visual turbidity): initially reduced but began to exhibit increased visual turbidity after 16 hours
